{"source": "PubChem BioAssay (NCI)", "assay_in_all_cases": "NCI tumour cell line growth inhibition, 48 h", "key": {"RPMI-8226 leukemia": {"test_system": "RPMI-8226 leukemia"}, "IGROV1 ovarian": {"test_system": "IGROV1 ovarian"}, "RXF 393 renal": {"test_system": "RXF 393 renal"}, "HS 578T breast": {"test_system": "HS 578T breast"}, "NCI-H522 lung": {"test_system": "NCI-H522 lung"}, "TK-10 renal": {"test_system": "TK-10 renal"}, "OVCAR-5 ovarian": {"test_system": "OVCAR-5 ovarian"}, "PC-3 prostate": {"test_system": "PC-3 prostate"}, "CAKI-1 renal": {"test_system": "CAKI-1 renal"}, "BT-549 breast": {"test_system": "BT-549 breast"}, "SK-MEL-5 melanoma": {"test_system": "SK-MEL-5 melanoma"}, "SF-539 CNS": {"test_system": "SF-539 CNS"}, "SK-MEL-2 melanoma": {"test_system": "SK-MEL-2 melanoma"}, "UACC-257 melanoma": {"test_system": "UACC-257 melanoma"}, "HCC-2998 colon": {"test_system": "HCC-2998 colon"}, "HCT-15 colon": {"test_system": "HCT-15 colon"}, "SF-295 CNS": {"test_system": "SF-295 CNS"}, "A498 renal": {"test_system": "A498 renal"}, "HOP-92 NSCLC": {"test_system": "HOP-92 NSCLC"}, "OVCAR-8 ovarian": {"test_system": "OVCAR-8 ovarian"}, "OVCAR-3 ovarian": {"test_system": "OVCAR-3 ovarian"}, "MDA-MB-231 breast": {"test_system": "MDA-MB-231 breast"}, "SR leukemia": {"test_system": "SR leukemia"}, "SW-620 colon": {"test_system": "SW-620 colon"}, "NCI/ADR-RES ovarian": {"test_system": "NCI/ADR-RES ovarian"}, "CCRF-CEM leukemia": {"test_system": "CCRF-CEM leukemia"}, "T-47D breast": {"test_system": "T-47D breast"}, "KM12 colon": {"test_system": "KM12 colon"}, "NCI-H226 lung": {"test_system": "NCI-H226 lung"}, "786-0 renal": {"test_system": "786-0 renal"}}, "note": "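Growth conditions: 96-well plates. Treatment: test compound, 48 hours, 5 concentrations. Analysis: linear interpolation between bracketing concentrations; unreached endpoints set to highest concentration. GI50 is the concentration that inhibits growth by half. Definition used: TGI = concentration required for complete inhibition of growth.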", "data": [{"smiles": "NS(=O)(=O)c1ccc(N2N=C(c3ccc(NC(=O)Nc4ccccc4)cc3)CC2c2ccc(Br)cc2)cc1", "note": "(centres undefined)", "values": [{"measurement": "GI50", "setting": "RPMI-8226 leukemia", "result": 2.11, "unit": "µM"}, {"measurement": "TGI", "setting": "RPMI-8226 leukemia", "result": 5.26, "unit": "µM"}, {"measurement": "GI50", "setting": "IGROV1 ovarian", "result": 2.86, "unit": "µM"}, {"measurement": "TGI", "setting": "IGROV1 ovarian", "result": 10.6, "unit": "µM"}, {"measurement": "GI50", "setting": "RXF 393 renal", "result": 1.82, "unit": "µM"}, {"measurement": "TGI", "setting": "RXF 393 renal", "result": 4.96, "unit": "µM"}, {"measurement": "GI50", "setting": "HS 578T breast", "result": 2.52, "unit": "µM"}, {"measurement": "TGI", "setting": "HS 578T breast", "result": 7.86, "unit": "µM"}, {"measurement": "GI50", "setting": "NCI-H522 lung", "result": 2.67, "unit": "µM"}, {"measurement": "TGI", "setting": "NCI-H522 lung", "result": 8.23, "unit": "µM"}, {"measurement": "GI50", "setting": "TK-10 renal", "result": 3.13, "unit": "µM"}, {"measurement": "TGI", "setting": "TK-10 renal", "result": 12.4, "unit": "µM"}, {"measurement": "GI50", "setting": "OVCAR-5 ovarian", "result": 2.14, "unit": "µM"}, {"measurement": "TGI", "setting": "OVCAR-5 ovarian", "result": 5.4, "unit": "µM"}, {"measurement": "GI50", "setting": "PC-3 prostate", "result": 2.73, "unit": "µM"}, {"measurement": "TGI", "setting": "PC-3 prostate", "result": 9.76, "unit": "µM"}, {"measurement": "GI50", "setting": "CAKI-1 renal", "result": 2.64, "unit": "µM"}, {"measurement": "TGI", "setting": "CAKI-1 renal", "result": 8.44, "unit": "µM"}, {"measurement": "GI50", "setting": "BT-549 breast", "result": 2.03, "unit": "µM"}, {"measurement": "TGI", "setting": "BT-549 breast", "result": 4.22, "unit": "µM"}, {"measurement": "GI50", "setting": "SK-MEL-5 melanoma", "result": 1.77, "unit": "µM"}, {"measurement": "TGI", "setting": "SK-MEL-5 melanoma", "result": 3.39, "unit": "µM"}, {"measurement": "GI50", "setting": "SF-539 CNS", "result": 2.06, "unit": "µM"}, {"measurement": "TGI", "setting": "SF-539 CNS", "result": 4.63, "unit": "µM"}, {"measurement": "GI50", "setting": "SK-MEL-2 melanoma", "result": 5.38, "unit": "µM"}, {"measurement": "TGI", "setting": "SK-MEL-2 melanoma", "result": 19.9, "unit": "µM"}, {"measurement": "GI50", "setting": "UACC-257 melanoma", "result": 5.32, "unit": "µM"}, {"measurement": "TGI", "setting": "UACC-257 melanoma", "result": 20.4, "unit": "µM"}, {"measurement": "GI50", "setting": "HCC-2998 colon", "result": 1.6, "unit": "µM"}, {"measurement": "TGI", "setting": "HCC-2998 colon", "result": 3.06, "unit": "µM"}, {"measurement": "GI50", "setting": "HCT-15 colon", "result": 2.58, "unit": "µM"}, {"measurement": "TGI", "setting": "HCT-15 colon", "result": 10.1, "unit": "µM"}, {"measurement": "GI50", "setting": "SF-295 CNS", "result": 3.18, "unit": "µM"}, {"measurement": "TGI", "setting": "SF-295 CNS", "result": 12.7, "unit": "µM"}, {"measurement": "GI50", "setting": "A498 renal", "result": 1.98, "unit": "µM"}, {"measurement": "TGI", "setting": "A498 renal", "result": 4.99, "unit": "µM"}, {"measurement": "GI50", "setting": "HOP-92 NSCLC", "result": 1.98, "unit": "µM"}, {"measurement": "TGI", "setting": "HOP-92 NSCLC", "result": 5.24, "unit": "µM"}, {"measurement": "GI50", "setting": "OVCAR-8 ovarian", "result": 3.55, "unit": "µM"}, {"measurement": "TGI", "setting": "OVCAR-8 ovarian", "result": 16.1, "unit": "µM"}, {"measurement": "GI50", "setting": "OVCAR-3 ovarian", "result": 1.86, "unit": "µM"}, {"measurement": "TGI", "setting": "OVCAR-3 ovarian", "result": 4.34, "unit": "µM"}, {"measurement": "GI50", "setting": "MDA-MB-231 breast", "result": 1.93, "unit": "µM"}, {"measurement": "TGI", "setting": "MDA-MB-231 breast", "result": 4.03, "unit": "µM"}, {"measurement": "GI50", "setting": "SR leukemia", "result": 2.71, "unit": "µM"}, {"measurement": "TGI", "setting": "SR leukemia", "result": 9.08, "unit": "µM"}, {"measurement": "GI50", "setting": "SW-620 colon", "result": 2.5, "unit": "µM"}, {"measurement": "GI50", "setting": "NCI/ADR-RES ovarian", "result": 1.91, "unit": "µM"}, {"measurement": "TGI", "setting": "NCI/ADR-RES ovarian", "result": 4, "unit": "µM"}, {"measurement": "GI50", "setting": "CCRF-CEM leukemia", "result": 2.34, "unit": "µM"}, {"measurement": "TGI", "setting": "CCRF-CEM leukemia", "result": 5.95, "unit": "µM"}, {"measurement": "GI50", "setting": "T-47D breast", "result": 2.87, "unit": "µM"}, {"measurement": "TGI", "setting": "T-47D breast", "result": 11.6, "unit": "µM"}, {"measurement": "GI50", "setting": "KM12 colon", "result": 2.62, "unit": "µM"}, {"measurement": "TGI", "setting": "KM12 colon", "result": 6.92, "unit": "µM"}, {"measurement": "GI50", "setting": "NCI-H226 lung", "result": 2.34, "unit": "µM"}, {"measurement": "TGI", "setting": "NCI-H226 lung", "result": 6.76, "unit": "µM"}, {"measurement": "GI50", "setting": "786-0 renal", "result": 2.95, "unit": "µM"}, {"measurement": "TGI", "setting": "786-0 renal", "result": 10.1, "unit": "µM"}]}]}
